Reference: PubChem BioAssay (NCI)
“And” between values parts separate entries of the source, which are not always exact repeats. Equal entries are not always repeated.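 Interpolation was linear, between the two tested concentrations surrounding the appropriate level; five concentrations were tested over 48 hours in 96-well plates. GI50: concentration for 50% inhibition of growth. At the TGI there is no net growth.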

Columns and labels:
Assay in all cases: NCI-60 cell line screen, 48 h
[1] = test system: NCI/ADR-RES ovarian
[2] = test system: NCI-H460 lung
[3] = test system: DU-145 prostate
[4] = test system: TK-10 renal
[5] = test system: SF-268 CNS
[6] = test system: NCI-H23 lung
[7] = test system: CCRF-CEM leukemia
[8] = test system: A498 renal
[9] = test system: NCI-H522 lung
[10] = test system: HOP-92 NSCLC

| Structure (SMILES) | TGI [1] [µM] | TGI [2] | TGI [3] | TGI [4] | TGI [5] [µM] | TGI [6] | TGI [7] | TGI [8] [µM] | TGI [9] | TGI [10] [µM] | GI50 [1] [µM] | GI50 [2] [µM] | GI50 [3] | GI50 [4] [µM] | GI50 [5] | GI50 [6] [µM] | GI50 [10] [µM] | GI50 [8] [µM] | GI50 [9] | GI50 [7] [µM] |
| --- | --- | --- | --- | --- | --- | --- | --- | --- | --- | --- | --- | --- | --- | --- | --- | --- | --- | --- | --- | --- |
| O=[N+]([O-])c1ccccc1N=Nc1c(O)[nH]c2ccccc12 | > 58.8 | > 96.6 µM | > 89.8 µM | > 100 µM | > 100 | 35.9 µM | > 100 µM | > 61.6 | > 100 µM |  |  |  |  |  |  |  |  |  |  |  |
| COc1cc(-c2[nH]ccc2Cl)oc1C1=C2N=C3C=C2C(C(C)C)C1CCCCCCCC3 (stereo unspecified) |  | 1.53 µM | 1.85 µM | 5.19 µM | 4.1 | 2.05 µM | 1.74 µM | 5.31 | 1.58 µM | 3.59 |  |  |  |  |  |  |  |  |  |  |
| CC(=O)OC12c3ccccc3C1CCCCCC21OCCCO1 (stereo unspecified) |  | > 100 µM |  | > 100 µM | > 100 | > 100 µM | > 100 µM | > 100 | > 100 µM |  |  |  |  |  |  |  |  |  |  |  |
| Cc1ccc(C)c(NC(=O)c2cc(-c3ccc([N+](=O)[O-])cc3)nc(N)n2)c1 |  | > 100 µM |  | > 100 µM | > 100 | > 100 µM | > 100 µM | > 100 | > 100 µM | > 100 |  |  |  |  |  |  |  |  |  |  |
| O=c1/c(=C/c2ccc(Cl)cc2Cl)sc2nc3ccccc3n12 |  | > 100 µM |  | > 100 µM | > 100 | > 100 µM | > 100 µM | > 100 | > 100 µM | > 100 |  |  |  |  |  |  |  |  |  |  |
| Brc1ccc([I+]c2ccc(Br)cc2)cc1 | > 100 | 4.23 µM | 16.6 µM | 13.3 µM | 2.4 | 4.2 µM |  | 10.7 | 3.18 µM | 5.69 | > 100 | 0.866 | 3.6 µM | 1.97 | 1.03 µM | 1.11 | 0.822 | 1.97 | 1.28 µM |  |
| CC(NS(C)(=O)=O)c1ccccc1 (stereo unspecified) | > 100 | > 100 µM | > 100 µM | > 100 µM |  | > 100 µM | > 100 µM |  | > 100 µM |  |  |  |  |  |  |  |  |  |  |  |
| Cn1c(CCC#N)nc2ccc(Br)cc2c1=O |  | > 100 µM |  | > 100 µM | > 100 | > 100 µM | > 100 µM | > 100 | > 100 µM | > 100 |  |  |  |  |  |  |  |  |  |  |
| COc1ccc(C(c2ccc(C(C)C)cc(=O)c2O)c2c(O)cc3oc(-c4ccccc4)cc(=O)c3c2O)cc1 (stereo unspecified) |  | 15.8 µM |  | 90.3 µM |  | 55.7 µM | > 100 µM | 51.5 |  | 3.53 |  |  |  |  |  |  |  |  |  |  |
| CCOC(=O)/N=C(\N)SCc1ccccc1 |  | > 100 µM |  | > 100 µM | > 100 | > 100 µM | > 100 µM | > 100 | > 100 µM | > 100 |  |  |  |  |  |  |  |  |  |  |
| COc1cc2c(c(OC)c1OC)-c1[nH]ncc1CC2 |  | > 100 µM |  | > 100 µM | > 100 | > 100 µM | > 100 µM | > 100 |  | > 100 |  |  |  |  |  |  |  |  |  |  |
| CN1CCC2(CC1)C(=O)N(N1CCCCCC1)C(=O)N2c1ccccc1 | > 100 | > 100 µM | > 100 µM | > 100 µM | > 100 | > 100 µM | > 100 µM | > 100 | > 100 µM |  |  |  |  |  |  |  |  |  |  |  |
| COc1cc(/C=C/C(C)=O)ccc1OP(=O)(O)O |  | > 100 µM | > 100 µM | > 100 µM | > 100 | > 100 µM |  | > 100 | > 100 µM | > 100 |  |  |  |  |  |  |  |  |  |  |
| COc1cc([C@@H]2c3cc4c(cc3[C@@H](NCCNCCO)[C@H]3COC(=O)[C@H]23)OCO4)cc(OC)c1O | > 100 | 4.49 µM and 3.1 µM | 9.83 µM and > 33.9 µM | 33.8 µM and 39.3 µM | 51.8 | 9.94 µM and 10.8 µM | 0.567 µM and 0.695 µM | 19.9 | > 22 µM and 6.55 µM |  |  |  | 1.82 µM and 3.88 µM |  | 0.761 µM and 1.59 µM |  |  |  | 2.22 µM and 1.05 µM | 0.123 |
| CC1(O)CC2C(CC1SCCO)C2(C)C (stereo unspecified) |  | > 100 µM |  | > 100 µM | > 100 | > 100 µM | > 100 µM | > 100 |  | > 100 |  |  |  |  |  |  |  |  |  |  |
| O=C1Nc2ccccc2C1Cc1ccccc1 (stereo unspecified) |  | > 100 µM | > 100 µM | > 100 µM | > 100 | > 100 µM | > 100 µM | > 100 | > 100 µM | > 100 |  |  |  |  |  |  |  |  |  |  |
| CC(=O)/C=C/C1=C(c2cc3ccccc3s2)c2ccccc2CC1 | > 100 |  | > 100 µM | > 100 µM | > 100 |  |  | 58.1 | 72.2 µM | 62.6 | 30.9 |  | 52.8 µM | 61.1 | 27.1 µM |  | 14.8 | 28.9 | 26 µM |  |
| O=c1c2ccc3cccc4c(=O)cc(c5ccccc15)-c2c34 |  | > 100 µM |  | > 100 µM | > 100 | > 100 µM | > 100 µM | > 100 | > 100 µM |  |  |  |  |  |  |  |  |  |  |  |
| Cn1c(=O)cc2c3c(c(NCCCO)ccc31)C(=O)c1ccccc1-2 | > 100 | > 100 µM | > 100 µM |  | > 100 | > 100 µM | > 100 µM | > 100 | > 100 µM |  | 5.2 | 2.31 | 7.62 µM |  | 6.75 µM | 3.37 |  | 1.77 | 2.5 µM | 3.29 |
| O=C1c2ccccc2C(=O)N1c1ccc(S(=O)(=O)Nc2ncccn2)cc1 | > 100 | > 100 µM | > 100 µM | > 100 µM | > 100 | > 100 µM | > 100 µM | > 100 | > 100 µM |  | > 100 | > 100 | > 100 µM | > 100 | > 100 µM | > 100 |  | > 100 | > 100 µM | 9.79 |
| O=C1CCCC/C1=C/C=C/c1ccccc1 |  | > 100 µM | > 100 µM | > 100 µM | > 100 | > 100 µM | > 100 µM | > 100 | 61.2 µM | > 100 |  |  |  |  |  |  |  |  |  |  |
| O=C(Nc1c(-c2nc3ccccc3[nH]2)sc(=S)n1-c1ccccc1)c1ccccc1 |  |  |  | > 100 µM | > 100 | > 100 µM | > 100 µM | > 100 | > 100 µM |  |  |  |  |  |  |  |  |  |  |  |
